Results on 13 compounds are retold here after patent US4118561A, “7-(Substituted)-7H-pyrrolo[3,2-f]quinazoline-1,3-diamines” (priority 1977, dated 1978).

In brackets after ≈: the same amount, converted by molar mass. Where only a bound is given, the exact number is not on record here.

Experiment [1] relates to S. paratyphi 11737. Briefly: In vitro antibacterial activity (MIC), S. paratyphi 11737. The format is cell-based. As to conditions: Salmonella enterica, 18 h.
The test system of experiment [2] is E. coli 9637. Description: In vitro antibacterial activity (MIC), E. coli 9637. The settings on record: Escherichia coli, 9637, 18 h.
Experiment [3] concerns S. aureus Smith. Description: In vitro antibacterial activity (MIC), S. aureus Smith. As to conditions: Staphylococcus aureus, 18 h.
In experiment [4] the test system is S. aureus 53-180. Briefly: In vitro antibacterial activity (MIC), S. aureus 53-180. As to conditions: Staphylococcus aureus, 53180, 18 h.
Experiment [5] concerns P. vulgaris 6896. Briefly: In vitro antibacterial activity (MIC), P. vulgaris 6896. As to conditions: Proteus vulgaris, 6896, 18 h.
Experiment [6] concerns N. catarrhalis 8193. Briefly: In vitro antibacterial activity (MIC), N. catarrhalis 8193. As to conditions: 18 h.
Experiment [7] concerns K. pneumoniae 10031. Description: In vitro antibacterial activity (MIC), K. pneumoniae 10031. The settings on record: Klebsiella pneumoniae, 10031, 18 h.

With `Nc1nc(N)c2c(ccc3[nH]ccc32)n1` [Example 1, 7-H-Pyrrolo[3,2-f]quinazoline-1,3-diamine], the MIC – broadly, the smallest concentration in the dilution series that meets the test's criterion for growth inhibition – came to 31.3 µg/mL (≈ 157 µM) in experiment [1]; 3.9 µg/mL (≈ 19.6 µM) in experiment [2]; 31.3 µg/mL (≈ 157 µM) in experiment [3]; 31.3 µg/mL (≈ 157 µM) in experiment [4]; 15.6 µg/mL (≈ 78.3 µM) in experiment [5]; 0.244 µg/mL (≈ 1.22 µM) in experiment [6]. In addition, the minimal inhibitory concentration (MIC) in experiment [7] worked out at 7.81 µg/mL (≈ 39.2 µM).

As for `Nc1nc(N)c2c(ccc3c2ccn3Cc2ccc(C(F)(F)F)cc2)n1` [Example 13], the MIC in experiment [1] came out at 15.6 µg/mL (≈ 43.7 µM); in experiment [2] it was 3.9 µg/mL (≈ 10.9 µM); in experiment [3], 1.95 µg/mL (≈ 5.46 µM); in experiment [4], 0.976 µg/mL (≈ 2.73 µM); in experiment [5], 31.3 µg/mL (≈ 87.6 µM); in experiment [6] it was 0.031 µg/mL (≈ 0.0868 µM). In addition, in experiment [7], it took 0.976 µg/mL (≈ 2.73 µM) to inhibit growth (MIC).

For `Cc1cccc(C)c1Cn1ccc2c3c(N)nc(N)nc3ccc21` [Example 24], the MIC in experiment [1] is greater than 250 µg/mL; in experiment [2], 250 µg/mL (≈ 788 µM); in experiment [3], 250 µg/mL (≈ 788 µM); in experiment [4] it was 250 µg/mL (≈ 788 µM); in experiment [5] it was greater than 250 µg/mL; in experiment [6], 0.122 µg/mL (≈ 0.384 µM). In experiment [7], this compound had an MIC of 15.6 µg/mL (≈ 49.1 µM).

In the case of `Cc1cc(C)cc(Cn2ccc3c4c(N)nc(N)nc4ccc32)c1` [Example 26], the MIC in experiment [1] is 15.6 µg/mL (≈ 49.1 µM); in experiment [2], 7.81 µg/mL (≈ 24.6 µM); in experiment [3], 0.976 µg/mL (≈ 3.08 µM); in experiment [4], 0.488 µg/mL (≈ 1.54 µM); in experiment [5], 15.6 µg/mL (≈ 49.1 µM); in experiment [6], 0.031 µg/mL (≈ 0.0977 µM). In experiment [7], 0.244 µg/mL (≈ 0.769 µM) was the least that counted as inhibitory (MIC).

With `Cc1cc(C)c(C)c(Cn2ccc3c4c(N)nc(N)nc4ccc32)c1C` [Example 28], the MIC was greater than 250 µg/mL in experiment [1]; greater than 250 µg/mL in experiment [2]; 15.6 µg/mL (≈ 45.2 µM) in experiment [3]; 15.6 µg/mL (≈ 45.2 µM) in experiment [4]; greater than 250 µg/mL in experiment [5]; 0.244 µg/mL (≈ 0.706 µM) in experiment [6]. In addition, the minimal inhibitory concentration (MIC) in experiment [7] amounted to 3.9 µg/mL (≈ 11.3 µM).

As for `COc1cccc(Cn2ccc3c4c(N)nc(N)nc4ccc32)c1OC` [Example 35], the MIC in experiment [1] was 15.6 µg/mL (≈ 44.6 µM); in experiment [2] it was 0.488 µg/mL (≈ 1.4 µM); in experiment [3], 0.488 µg/mL (≈ 1.4 µM); in experiment [4] it was 0.244 µg/mL (≈ 0.698 µM); in experiment [5], 7.81 µg/mL (≈ 22.4 µM); in experiment [6], 0.122 µg/mL (≈ 0.349 µM). Inhibition of growth in experiment [7] (MIC) required 0.488 µg/mL (≈ 1.4 µM).

`COc1ccc(OC)c(Cn2ccc3c4c(N)nc(N)nc4ccc32)c1` [Example 36]: the MIC in experiment [1] came to 3.9 µg/mL (≈ 11.2 µM); in experiment [2] it was 0.976 µg/mL (≈ 2.79 µM); in experiment [3], 0.244 µg/mL (≈ 0.698 µM); in experiment [4], 0.122 µg/mL (≈ 0.349 µM); in experiment [5], 3.9 µg/mL (≈ 11.2 µM); in experiment [6] it was 0.031 µg/mL (≈ 0.0887 µM). Also, the MIC in experiment [7] worked out at 0.031 µg/mL (≈ 0.0887 µM).

With `CCOc1ccc(Cn2ccc3c4c(N)nc(N)nc4ccc32)cc1` [Example 40], the MIC turned out to be 7.81 µg/mL (≈ 23.4 µM) in experiment [1]; 1.95 µg/mL (≈ 5.85 µM) in experiment [2]; 1.95 µg/mL (≈ 5.85 µM) in experiment [3]; 0.488 µg/mL (≈ 1.46 µM) in experiment [4]; 7.81 µg/mL (≈ 23.4 µM) in experiment [5]; 0.122 µg/mL (≈ 0.366 µM) in experiment [6]. The compound further registered an MIC in experiment [7] of 3.9 µg/mL (≈ 11.7 µM).

In the case of `Nc1nc(N)c2c(ccc3c2ccn3Cc2cscn2)n1` [Example 42], the MIC in experiment [1] worked out at 0.976 µg/mL (≈ 3.29 µM); in experiment [2], 0.244 µg/mL (≈ 0.823 µM); in experiment [3], 0.488 µg/mL (≈ 1.65 µM); in experiment [4], 0.244 µg/mL (≈ 0.823 µM); in experiment [5] it was 0.976 µg/mL (≈ 3.29 µM); in experiment [6], 0.0038 µg/mL (≈ 0.0128 µM). Besides, the MIC in experiment [7] was determined as 0.122 µg/mL (≈ 0.412 µM).

For `Nc1nc(N)c2c(ccc3c2ccn3Cc2csc3ccccc23)n1` [Example 46], the MIC in experiment [1] was greater than 250 µg/mL; in experiment [2] it was 125 µg/mL (≈ 362 µM); in experiment [3], 31.3 µg/mL (≈ 90.6 µM); in experiment [4], 31.3 µg/mL (≈ 90.6 µM); in experiment [5], greater than 250 µg/mL; in experiment [6], 1.95 µg/mL (≈ 5.65 µM). Besides, the MIC in experiment [7] amounted to 15.6 µg/mL (≈ 45.2 µM).

Regarding `Cc1noc(C)c1Cn1ccc2c3c(N)nc(N)nc3ccc21` [Example 52], the MIC is 1.95 µg/mL (≈ 6.32 µM) in experiment [1]; 0.976 µg/mL (≈ 3.17 µM) in experiment [2]; 1.95 µg/mL (≈ 6.32 µM) in experiment [3]; 0.976 µg/mL (≈ 3.17 µM) in experiment [4]; 3.9 µg/mL (≈ 12.6 µM) in experiment [5]; 0.0152 µg/mL (≈ 0.0493 µM) in experiment [6]. Further, the MIC in experiment [7] was 0.244 µg/mL (≈ 0.791 µM).

For `Nc1nc(N)c2c(ccc3c2ccn3CC=Cc2ccccc2)n1` [Example 57], the MIC in experiment [1] came out at 15.6 µg/mL (≈ 49.5 µM); in experiment [2] it was 3.9 µg/mL (≈ 12.4 µM); in experiment [3] it was 1.95 µg/mL (≈ 6.18 µM); in experiment [4] it was 0.976 µg/mL (≈ 3.09 µM); in experiment [5], 7.81 µg/mL (≈ 24.8 µM); in experiment [6], 0.122 µg/mL (≈ 0.387 µM). Besides, the MIC in experiment [7] worked out at 0.488 µg/mL (≈ 1.55 µM).

In the case of `COc1cc(Cn2ccc3c4c(N)nc(N)nc4ccc32)cc(OC)c1` [Example 58], the MIC in experiment [1] amounted to 1.95 µg/mL (≈ 5.58 µM); in experiment [2] it was 0.976 µg/mL (≈ 2.79 µM); in experiment [3], 0.488 µg/mL (≈ 1.4 µM); in experiment [4] it was 0.244 µg/mL (≈ 0.698 µM); in experiment [5] it was 15.6 µg/mL (≈ 44.6 µM); in experiment [6], 0.061 µg/mL (≈ 0.175 µM). Further, the MIC in experiment [7] was 0.122 µg/mL (≈ 0.349 µM).
